Data taken from patent US6951843B2, “Peptide derivatives and their pharmaceutically acceptable salts, thereof, processes for preparation of both and use thereof” (priority 2000, dated 2005).
Read-outs that look alike come from different tables or passages of the source.

How the values were obtained:
Lys-gingipain (KGP) = Lys-gingipain (KGP) (Porphyromonas gingivalis, UniProt B2RLK2)
Protocol: Measurement of Inhibitory Activity Against KGP
The inhibitory activity against Lys-gingipain (KGP) was measured by the method described in Journal Biochemistry, Vol. 123, 305-312 (1998), using Z-His-Glu-Lys-MCA as a substrate. Specifically, the measurement was carried out in the following manner: 100 μl of 50 mM L-cystein, 200 μl of a 0.1 M sodium phosphate buffer solution (pH 7.5), 20 μl of 12.3 nM KGP solution containing 0.05% “Brij35” (a tradename of Aldrich, polyoxyethylene(23) lauryl ether), 80 μl of distilled water and 100 μl of a dimethyl sulfoxide solution of a compound according to the invention were mixed together, and preincubated at 37° C. for 5 minutes. Thereafter, 500 μl of a 0.1% dimethyl sulfoxide solution containing 20 μM Z-His-Glu-Lys-MCA was added, followed by incubation at 40° C. for 10 minutes. Then, an acetic acid buffer solution (pH 5.0) containing 10 mM iodoacetamide was added to stop the enzyme reaction, and the fluorescence intensity (F) at 460 nm excited at 380 nm was measured. […] The enzyme inhibitory activity (%) was calculated by the following equation. Enzyme inhibitory activity (%)=[1−(F/F0)]×100

Arg-gingipain (RGP) = test: Inhibitory activity against Arg-gingipain (RGP), substrate Z-Phe-Arg-MCA, for comparison; assay type: biochemical, Porphyromonas gingivalis; conditions: compound concentration 10^−6 mol/l
Protocol: Enzyme inhibitory activity (%)=[1−(F/F0)]×100
The inhibitory activity against Arg-gingipain (hereinafter referred to as “RGP”) was measured for comparison in a manner similar to the above, by the process described in Journal Biological Chemistry, Vol. 269, 21371-21378 (1994) using Z-Phe-Arg-MCA as a substrate.

[1] = compound concentration 10^−6 mol/l
[2] = compound concentration 10^−9 mol/l

| Compound | melting point | Enzyme inhibitory activity (%) KGP (Lys-gingipain (KGP); [1]) | Enzyme inhibitory activity (%) KGP (Lys-gingipain (KGP); [2]) | Enzyme inhibitory activity (%) RGP (Arg-gingipain (RGP)) |
| --- | --- | --- | --- | --- |
| COC(=O)C(O)[C@H](CCCCNC(=O)OC(C)(C)C)NC(=O)[C@H](CCC(=O)OC(C)(C)C)NC(=O)OCc1ccccc1 (stereo partly drawn) | 101 to 103 °C |  |  |  |
| CC(C)(C)OC(=O)CC[C@H](NC(=O)OCc1ccccc1)C(=O)N[C@@H](CCCCNC(=O)OC(C)(C)C)C(O)C(=O)NCCc1ccccc1 (stereo partly drawn) | 82 to 85 °C |  |  |  |
| CC(C)(C)OC(=O)NCCCC[C@H](NC(=O)[C@H](CCC(N)=O)NC(=O)OCc1ccccc1)C(O)C(=O)NCc1ccccc1 (stereo partly drawn) | 138 to 141 °C |  |  |  |
| CNC(=O)CC[C@H](NC(=O)OCc1ccccc1)C(=O)N[C@@H](CCCCNC(=O)OC(C)(C)C)C(O)C(=O)NCc1ccccc1 (stereo partly drawn) | 147 to 149 °C |  |  |  |
| CC(C)(C)OC(=O)NCCCC[C@H](NC(=O)[C@H](CCC(=O)NCCNC(=O)OC(C)(C)C)NC(=O)OCc1ccccc1)C(O)C(=O)NCc1ccccc1 (stereo partly drawn) | 170 to 172 °C |  |  |  |
| CN(C)NC(=O)CC[C@H](NC(=O)OCc1ccccc1)C(=O)N[C@@H](CCCCNC(=O)OC(C)(C)C)C(O)C(=O)NCc1ccccc1 (stereo partly drawn) | 123 to 125 °C |  |  |  |
| CN(NC(=O)CC[C@H](NC(=O)OCc1ccccc1)C(=O)N[C@@H](CCCCNC(=O)OC(C)(C)C)C(O)C(=O)NCc1ccccc1)c1ccccc1 (stereo partly drawn) | 170 to 173 °C |  |  |  |
| CN(C)C(=O)[C@H](Cc1ccccc1)NC(=O)C(=O)[C@H](CCCCNC(=O)OC(C)(C)C)NC(=O)[C@H](CCC(=O)OC(C)(C)C)NC(=O)OCc1ccccc1 | 102 to 104 °C |  |  |  |
| CC(C)C[C@H](NC(=O)C(=O)[C@H](CCCCNC(=O)OC(C)(C)C)NC(=O)[C@H](CCC(=O)OC(C)(C)C)NC(=O)OCc1ccccc1)C(=O)N(C)C | 119 to 122 °C |  |  |  |
| CC(C)(C)OC(=O)CC[C@H](NC(=O)OCc1ccccc1)C(=O)N[C@@H](CCCCNC(=O)OC(C)(C)C)C(O)C(=O)O (stereo partly drawn) | 48 to 50 °C |  |  |  |
| CN(C)C(=O)[C@H](CCC(=O)OC(C)(C)C)NC(=O)C(=O)[C@H](CCCCNC(=O)OC(C)(C)C)NC(=O)[C@H](CCC(=O)OC(C)(C)C)NC(=O)OCc1ccccc1 | 127 to 130 °C |  |  |  |
| CN(C)C(=O)[C@H](CC(N)=O)NC(=O)C(=O)[C@H](CCCCNC(=O)OC(C)(C)C)NC(=O)[C@H](CCC(=O)OC(C)(C)C)NC(=O)OCc1ccccc1 | 122 to 124 °C |  |  |  |
| CN(C)C(=O)[C@H](CCCCNC(=O)OC(C)(C)C)NC(=O)C(=O)[C@H](CCCCNC(=O)OC(C)(C)C)NC(=O)[C@H](CCC(=O)OC(C)(C)C)NC(=O)OCc1ccccc1 | 152 to 155 °C |  |  |  |
| CCCNC(=O)C(=O)[C@H](CCCCNC(=O)OC(C)(C)C)NC(=O)[C@H](CCC(=O)OC(C)(C)C)NC(=O)OCc1ccccc1 | 131 to 133 °C |  |  |  |
| CC(C)(C)OC(=O)CC[C@H](NC(=O)OCc1ccccc1)C(=O)N[C@@H](CCCCNC(=O)OC(C)(C)C)C(=O)C(=O)NCc1ccccc1 | 130 to 132 °C |  |  |  |
| CC(C)(C)OC(=O)CC[C@H](NC(=O)OCc1ccccc1)C(=O)N[C@@H](CCCCNC(=O)OC(C)(C)C)C(=O)C(=O)NCCc1ccccc1 | 148 to 150 °C |  |  |  |
| CC(C)(C)OC(=O)NCCCC[C@H](NC(=O)[C@H](CCC(N)=O)NC(=O)OCc1ccccc1)C(=O)C(=O)NCc1ccccc1 | 193 to 195 °C |  |  |  |
| CNC(=O)CC[C@H](NC(=O)OCc1ccccc1)C(=O)N[C@@H](CCCCNC(=O)OC(C)(C)C)C(=O)C(=O)NCc1ccccc1 | 189 to 192 °C |  |  |  |
| CC(C)(C)OC(=O)NCCCC[C@H](NC(=O)[C@H](CCC(=O)NCCNC(=O)OC(C)(C)C)NC(=O)OCc1ccccc1)C(=O)C(=O)NCc1ccccc1 | 157 to 159 °C |  |  |  |
| CN(NC(=O)CC[C@H](NC(=O)OCc1ccccc1)C(=O)N[C@@H](CCCCNC(=O)OC(C)(C)C)C(=O)C(=O)NCc1ccccc1)c1ccccc1 | 147 to 150 °C |  |  |  |

| Compound | melting point | Enzyme inhibitory activity (%) KGP (Lys-gingipain (KGP); [1]) | Enzyme inhibitory activity (%) KGP (Lys-gingipain (KGP); [2]) | Enzyme inhibitory activity (%) RGP (Arg-gingipain (RGP)) |
| --- | --- | --- | --- | --- |
| CN(C)C(=O)[C@H](CC(N)=O)NC(=O)C(O)[C@H](CCCCNC(=O)OC(C)(C)C)NC(=O)[C@H](CCC(=O)OC(C)(C)C)NC(=O)OCc1ccccc1 (stereo partly drawn) | 88 to 91 °C |  |  |  |
| CCCNC(=O)C(O)[C@H](CCCCNC(=O)OC(C)(C)C)NC(=O)[C@H](CCC(=O)OC(C)(C)C)NC(=O)OCc1ccccc1 (stereo partly drawn) | 73 to 75 °C |  |  |  |
| CN(C)C(=O)[C@H](Cc1ccccc1)NC(=O)C(O)[C@H](CCCCNC(=O)OC(C)(C)C)NC(=O)[C@H](CCC(=O)OC(C)(C)C)NC(=O)OCc1ccccc1 (single isomer, unassigned) | 132 to 134 °C |  |  |  |
| CC(C)(C)OC(=O)CC[C@H](NC(=O)OCc1ccccc1)C(=O)N[C@@H](CCCCNC(=O)OC(C)(C)C)C(O)C(=O)Nc1ccccc1 (single isomer, unassigned) | 146 to 147 °C |  |  |  |
| CN(C)C(=O)[C@H](Cc1ccccc1)NC(=O)C(=O)[C@H](CCCCN)NC(=O)[C@H](CCC(=O)O)NC(=O)OCc1ccccc1.Cl [Example 34] |  | 99.7% | 40.6% | 5.7% |
| CC(C)C[C@H](NC(=O)C(=O)[C@H](CCCCN)NC(=O)[C@H](CCC(=O)O)NC(=O)OCc1ccccc1)C(=O)N(C)C.Cl [Example 35] |  | 99.9% | 50.6% | 3.7% |
| CN(C)C(=O)[C@H](CCC(=O)O)NC(=O)C(=O)[C@H](CCCCN)NC(=O)[C@H](CCC(=O)O)NC(=O)OCc1ccccc1.Cl [Example 36] |  | 98.6% | 38.4% | 0.0% |
| CN(C)C(=O)[C@H](CC(N)=O)NC(=O)C(=O)[C@H](CCCCN)NC(=O)[C@H](CCC(=O)O)NC(=O)OCc1ccccc1.Cl [Example 37] |  | 99.9% | 59.6% | 8.5% |
| CCCNC(=O)C(=O)[C@H](CCCCN)NC(=O)[C@H](CCC(=O)O)NC(=O)OCc1ccccc1.Cl [Example 39] |  | 99.6% | 71.9% | 0.0% |
| Cl.NCCCC[C@H](NC(=O)[C@H](CCC(=O)O)NC(=O)OCc1ccccc1)C(=O)C(=O)Nc1ccccc1 [Example 40] |  | 99.6% | 71.3% | 0.0% |
| Cl.NCCCC[C@H](NC(=O)[C@H](CCC(=O)O)NC(=O)OCc1ccccc1)C(=O)C(=O)NCc1ccccc1 [Example 41] |  | 99.7% | 81.8% | 4.0% |
| Cl.NCCCC[C@H](NC(=O)[C@H](CCC(=O)O)NC(=O)OCc1ccccc1)C(=O)C(=O)NCCc1ccccc1 [Example 42] |  | 98.0% | 67.0% | 7.7% |
| Cl.NCCCC[C@H](NC(=O)[C@H](CCC(N)=O)NC(=O)OCc1ccccc1)C(=O)C(=O)NCc1ccccc1 [Example 43] |  | 100.0% | 93.8% | 9.0% |
| CNC(=O)CC[C@H](NC(=O)OCc1ccccc1)C(=O)N[C@@H](CCCCN)C(=O)C(=O)NCc1ccccc1.Cl [Example 44] |  | 100.0% | 97.3% | 1.9% |
| CN(C)C(=O)CC[C@H](NC(=O)OCc1ccccc1)C(=O)N[C@@H](CCCCN)C(=O)C(=O)NCc1ccccc1.Cl [Example 45] |  | 100.0% | 93.7% | 0.0% |
| Cl.Cl.NCCCC[C@H](NC(=O)[C@H](CCC(=O)NCCN)NC(=O)OCc1ccccc1)C(=O)C(=O)NCc1ccccc1 [Example 46] |  | 99.9% | 99.9% | 0.5% |
| Cl.Cl.NCCCC[C@H](NC(=O)[C@H](CCC(=O)N1CCNCC1)NC(=O)OCc1ccccc1)C(=O)C(=O)NCc1ccccc1 [Example 47] |  | 100.0% | 98.5% | 6.4% |
| CN(C)NC(=O)CC[C@H](NC(=O)OCc1ccccc1)C(=O)N[C@@H](CCCCN)C(=O)C(=O)NCc1ccccc1.Cl.Cl [Example 48] |  | 100.0% | 98.2% | 4.1% |
| CN(NC(=O)CC[C@H](NC(=O)OCc1ccccc1)C(=O)N[C@@H](CCCCN)C(=O)C(=O)NCc1ccccc1)c1ccccc1.Cl.Cl [Example 49] |  | 100.0% | 99.0% | 0.0% |
